Data as given in publication PMC9230645, “Discovery of GSK3β Inhibitors through In Silico Prediction-and-Experiment Cycling Strategy, and Biological Evaluation” (Molecules, 2022).

Tests used:
GSK3β [1] = target: T1, GSK3β (Homo sapiens, UniProt P49841); test: GSK3β kinase assay (TR-FRET / Lance HTRF); type: biochemical; conditions: for inhibition at 0.5 µM: 0.5 μM compound; for inhibition at 5 µM: 5 μM compound; for IC50: Table 1, means ± SD (n = 2)
T1 construct: purchased Carna Biosciences
Protocol: The GSK3β inhibitory activities of the virtually-selected 3000 compounds were screened by a Lance HTRF assay. At a concentration of 10 μM, the single-point screening signal-to-noise (S/N) ratio, Z factor, and Z’ factor of the assay was 7.3, 0.48 and 0.61, respectively.

GSK3β [2] = target: T1, GSK3β; test: Five-by-five-concentration kinetic analysis of GSK3β inhibition versus ATP (Lineweaver–Burk); type: biochemical
GSK3β [3] = target: T1, GSK3β; test: Reversibility assay (dilution method); type: biochemical; conditions: pre-incubated with 1 µM for 30 min, then diluted
Protocol: Figure 3 In vitro assay. […] (b) Competitive inhibition by cpd1 and SB216873. Compounds were tested using 4-point 2-fold serial dilution, starting from 1 µM or 0.25 µM at 5 different concentration of ATP (200, 100, 50, 33.3, and 25 µM). (c) Reversibility test.
The in vitro enzyme TR-FRET (time-resolved fluorescence energy transfer) assays were performed in 384-well white plates (Greiner) at room temperature (25 °C) using an HTS system from Biomek FX (Beckman Coulter) and a Stella robot. The assay was performed in a final volume of 10 µL in a kinase buffer of 50 mM HEPES, pH 7.5, 1 mM EGTA, 10 mM MgCl2, 2 mM DTT, and 0.01% Tween-20. The 3000 virtually-selected compounds in the 5 mM DMSO stock were diluted into desired concentrations with kinase buffer. A total of 5 µL of GSK3β (Carna Biosciences, 0.5 ng/well) and 2.5 µL of compounds were added to the assay plates and, then, 2.5 µL of the ULight-GS Peptide (Ser641/pSer657, […](pS)ED, #TRF0131 PerkinElmer, 50 nM final concentration)/ATP mixture were added. […] After incubation for 1 h, the fluorescence signal was read in excitation at 320 nm with an emission at 665 nm with the Envision Multilabel Plate Reader (PerkinElmer). Experimental data from dose–response curves were analyzed by nonlinear regression analysis with GraphPad Prism, version 7.00 for Windows, and the IC50 values were obtained. […]

Wnt/β-catenin signaling = test: HEK293 TOP flash reporter assay; type: cell-based; conditions: 5 µM, HEK293 TOP flash reporter cells, 18 h
Protocol: The pharmacologic inhibition of GSK3β’s activity can lead to β-catenin stabilization and subsequently activate Wnt/β-catenin signaling. To measure the inhibitory activities of the compounds selected in GSK3β enzyme-based high-throughput screening, these were treated in HEK293 TOP flash reporter cells at various concentrations.
The HEK293 reporter cells (HEK293 cells containing the chromosomally incorporated TOPflash gene) were provided by KY Choi (Yonsei University, Seoul, Korea). The HEK293 reporter cells were cultured in DMEM (Gibco) supplemented with 10% FBS (Gibco). To test the activates of GSK3β inhibition for hit compounds, HEK293 reporter cells were seeded into 96-well black polystyrene plates (Greiner Bio-One, Kremsmünster, Austria) at 1.5 × 10^4 cells per well and cultured for 24 h. Hit compounds, a positive control (CHIR99021, SelleckChem, Houston, TX, USA) or control (DMSO) were added to the wells at the indicated concentrations. After 18 h, the plates were assayed for firefly luciferase activity; relative reporter activity was determined after the data were normalized relative to the value of the WST-1 (Takara Korea Biomedical Inc., Seoul, Korea) cell viability analysis. Statistical analyses were performed using Prism 8 (GraphPad Software). […]

T1 sequence (P49841 whole entry): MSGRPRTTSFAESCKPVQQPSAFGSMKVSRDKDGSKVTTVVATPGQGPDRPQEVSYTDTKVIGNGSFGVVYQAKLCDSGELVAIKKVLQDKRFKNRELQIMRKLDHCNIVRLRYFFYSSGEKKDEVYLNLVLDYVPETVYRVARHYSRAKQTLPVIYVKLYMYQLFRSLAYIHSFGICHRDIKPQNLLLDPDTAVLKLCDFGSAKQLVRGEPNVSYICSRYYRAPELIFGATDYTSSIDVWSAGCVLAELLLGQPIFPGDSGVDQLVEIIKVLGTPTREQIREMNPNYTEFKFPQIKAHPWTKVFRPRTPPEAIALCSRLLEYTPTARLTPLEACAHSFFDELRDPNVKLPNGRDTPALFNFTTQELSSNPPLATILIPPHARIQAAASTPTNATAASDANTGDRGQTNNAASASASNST

Row | Structure (SMILES) | inhibition at 0.5 µM (GSK3β [1]) [%] | inhibition at 5 µM (GSK3β [1]) [%] | IC50 (GSK3β [1]) [nM] | Ki (GSK3β [2]; 5 ATP concentrations (200, 100, 50, 33.3, 25 µM), read-out: slope inhibition constant K is) [nM] | inhibition pattern of GSK3β-catalyzed phosphorylation (GSK3β [2]; versus ATP) | enzyme-binding reversibility (GSK3β [3]) | TOP flash activity induction (Wnt/β-catenin signaling) [fold]
1 | CCc1cc(NCc2scnc2-c2ccccc2)n2nccc2n1 [Compound 6] | 45 | 91 | 730 ± 113 |  |  |  | 
2 | Cc1cc(NCCCNc2cccnc2)n2nccc2n1 [Compound 7] | 30 | 90 | 1030 ± 66 |  |  |  | 
3 | COCc1cc(NCc2nnn[nH]2)n2nccc2n1 [Compound 5] | 38 | 95 | 701 ± 118 |  |  |  | 
4 | Cc1c(CNc2cc(-c3ccccc3F)nc3ccnn23)cnn1C [Compound 4] | 57 | 96 | 347 ± 56 |  |  |  | 
5 | Cc1nc[nH]c1CSCCNc1cc(-c2ccccc2)nc2ccnn12 [Compound 2] | 78 | 100 | 211 ± 55 |  |  |  | 
6 | CCc1nccn1CCCNc1cc(-c2ccc(F)cc2)nc2ccnn12 [Compound 1, N-(3-(2-ethyl-1H-imidazol-1-yl)propyl)-5-(4-fluorophenyl)pyrazolo[1,5-a]pyrimidin-7-amine] | 100 | 100 | 37 ± 6 | 41.8 | competitive | reversible | 3.5
7 | Cn1cc(C2=C(c3ccc(Cl)cc3Cl)C(=O)NC2=O)c2ccccc21 [8 (SB216763), SB216763, reference compound] | 61 | 100 |  |  |  |  | 
